Here are results for 28 compounds from patent publication US20090304607A1, “Antibacterial Flavor and Fragance Composition and Halitosis-Inhibition Flavor and Fragrance Composition and Oral Care Composition Containing the Same” (TAKASAGO INTERNATIONAL CORPORATION, priority 2002, published 2009).

Bounds are passed on as bounds.

The test system of experiment [1] is volatile sulfide production from saliva. In words: Inhibition of volatile sulfide production from saliva (anaerobic culture, FPD-GC of head space). The experiment is classed as cell-based. To be noted: saliva cultured 37° C. 3 hours under nitrogen. The procedure:
A test of inhibitory activity of the fragrance materials on volatile sulfide production from saliva was carried out according to the following method. Saliva was collected in a 50 ml of sterile centrifuge tube from testee without brushing teeth in the morning between 9 to 10 o'clock, and was cooled on ice until use. Each of 2 ml of the saliva was put into sterile test tube with screw cap aseptically. Saliva only was used as control and that mixed with 20 μl of ethanol was used as reference.
After the addition of samples, the inner air was replaced nitrogen in a stream of nitrogen gas at 0.5 atm under stirring with a voltex mixer. Cultivation was carried out at 37° C. for 3 hours and cooled on ice until use. Volatile sulfides were analyzed by a gas chromatograph (FPD-GC) with a flame photometer. In this connection, the samples after the culture were stored in ice-water until their analysis.
Column: 6 m×4 mm i.d. (glass packed column) Column liquid phase: 20% DNP on 80/100 mesh Chromosorb W AW DMCS Column temperature: 100° C. Carrier gas (flow rate): N2 (40 ml/min) Injection temperature: 120° C. Detector: FPD (flame photometric detector; fitted with 393 nm filter for sulfur compound detection) Detector temperature: 150° C.
The inhibition rate of methyl mercaptan was determined according to the following equation:
Inhibition rate (%) of methyl mercaptan={(Blank−Sample)/Blank}×100
Blank and Sample in the equation represent the quantities of producing methyl mercaptan in respective cases. […]

Experiment [2] has as its system Fusobacterium nucleatum JCM 6328 (Fn-1). In words: Bactericidal activity, CFU measuring method per Quantitative Suspension Test (EN 1276). The experiment is classed as cell-based. The settings on record: for Results of Judgment 30 sec (Log decrease of number of bacteria vs control): 30 sec contact; for Results of Judgment 1 min (Log decrease of number of bacteria vs control): 1 min contact. The procedure:
The strain used in the bactericidal activity was obtained from The Institute of Physical and Chemical Research which was known to be a pathogen of periodontal disease and also known to produce volatile sulfides.
Fn-1 was cultured on slants of GAM medium (Nissui Pharmaceutical Co. Ltd.) and added physical saline to make a cell suspension. In detail, to each slant cultured at 37° C. for 24 hours under an anaerobic condition using BBL gas-pack anaerobic system, 2 ml of physiological saline was added and scraped off the microbes with a transfer loop to make a cell suspension. This operation was repeated twice, and the combined suspension was centrifugalized, added again a half amount of physiological saline to the precipitate to make the suspension. The suspension was filtered through two sheets of sterile gauze to remove agar pieces and fibrous cells. The filtrate was centrifugalized again, the precipitate was re-suspended in physiological saline to use for the tests.
As for test solutions, fragrance samples were dissolved in equal weight of dimethylformamide (DMF) and were diluted with ethanol to necessary concentrations (volume/volume).
Each test solution (30 μl) was added to sterile distilled water and stirred or subjected to ultrasonic treatment to dissolve sample or to form a homogeneous suspension.
To each solution or homogeneous suspension, 333 μl of previous cell suspension of Fn-1 was added and stirred. After 30 seconds and 1 minute, each 333 μl was added to 3 ml of D/E Neutralization broth (DIFCO) (10 fold dilution), 100 fold and 1000 fold dilution liquids were made similarly. Each 50 μl of the liquid was spread on 15 ml of Trypticase soy agar plates using Autoplate 4000 (Spiral Biotec Co. Ltd., MD, USA) and were cultivated at 37° C. for 40 hours under anaerobic condition. After the cultivation, colonies were counted by Q-Count (Spiral Biotec Co. Ltd., MD, USA) to determine CFU/ml.
Suspension, as a control, consisted of 3 ml of water and 333 μl of the cell suspension, and also suspension as a reference, consisted of 3 ml of water, 30 μl of ethanol and 333 μl of the cell suspension was employed to determine CFU/ml thereof.
“30 sec” and “1 min” were shown the sampling time, and “Log inc.” was shown the mean Log value of the control.

Setting [3] is: 1000 ppm, read-out: CH3SH Inhib. %.
The mark [4] stands for this setting: 500 ppm, read-out: CH3SH Inhib. %.
The mark [5] stands for this setting: 100 ppm, read-out: CH3SH Inhib. %.

Consider `C=CCOC(=O)CCC1CCCCC1` [Allyl cyclohexylpropionate], for which, in experiment [1] (500 ppm), the “CH3SH Inhib. %” value amounted to 92%. In the case of `C=CCOC(=O)CCCCCC` [Allyl enanthate], the inhibition at 1000 ppm in experiment [1] (setting [3]) worked out at 100%. As for `CC1(C)C[C@H]2[C@H]1CC[C@]1(C)CCC[C@@]2(O)C1` [Caryophyllene alcohol], in experiment [2] (500 ppm), the “Results of Judgment 30 sec (Log decrease of number of bacteria vs control)” value is 1.13 Log and the “Results of Judgment 1 min (Log decrease of number of bacteria vs control)” value is given as 2.25 Log. The “CH3SH Inhib. %” value in experiment [1] (500 ppm) was determined as 100%. As to `COC(/C=C/c1ccccc1)OC` [Cinnamicaldehyde dimethyl acetal], the “CH3SH Inhib. %” value in experiment [1] (1000 ppm) came to 100%. On to `O=C/C=C/c1ccccc1` [Cinnamicaldehyde], for which, in experiment [2] (2000 ppm), the “Results of Judgment 30 sec (Log decrease of number of bacteria vs control)” value is greater than 3.42 Log and the “Results of Judgment 1 min (Log decrease of number of bacteria vs control)” value was greater than 3.42 Log. Also, the inhibition at 2000 ppm in experiment [1] (2000 ppm, read-out: CH3SH Inhib. %) came out at 100%. For `CC(C)=CCCC(C)=CC=O` [Citral], the inhibition at 500 ppm in experiment [1] (setting [4]) turned out to be 100%. `CCCc1ccc(O)c(OC)c1` [Dihydroeugenol]: in experiment [2] (2000 ppm), the “Results of Judgment 30 sec (Log decrease of number of bacteria vs control)” value is on record as greater than 3.42 Log and the “Results of Judgment 1 min (Log decrease of number of bacteria vs control)” value is recorded as greater than 3.42 Log. Moreover, the “CH3SH Inhib. %” value in experiment [1] (2000 ppm) came out at 100%.

In the case of `CC(C)=CCC/C(C)=C/CCC(C)CCO` (stereo not shown) [Dihydrofarnesol], in experiment [2] (300 ppm), the “Results of Judgment 30 sec (Log decrease of number of bacteria vs control)” value is recorded as greater than 3.42 Log and the “Results of Judgment 1 min (Log decrease of number of bacteria vs control)” value is on record as greater than 3.42 Log. The “CH3SH Inhib. %” value in experiment [1] (300 ppm) was determined as 100%.

Take `CCOC(=O)c1ccccc1O` [Ethyl salicylate]: the inhibition at 1000 ppm in experiment [1] (setting [3]) is 100%. Consider `C=CCc1ccc(O)c(OC)c1` [Eugenol], for which the inhibition at 500 ppm in experiment [1] (setting [4]) turned out to be 100%.

Regarding `CC(C)=CCCC(C)=CCCC(C)=CCO` [Farnesol], in experiment [2] (100 ppm), the “Results of Judgment 30 sec (Log decrease of number of bacteria vs control)” value is reported as 3.70 Log and the “Results of Judgment 1 min (Log decrease of number of bacteria vs control)” value is recorded as greater than 4.18 Log. Also, the inhibition at 100 ppm in experiment [1] (setting [5]) was 100%. With `CCCCCC=O` [Hexylaldehyde], in experiment [1] (300 ppm), the “CH3SH Inhib. %” value was found to be 82%. Consider `CC(C)c1cccc(=O)c(O)c1` [Hinokitiol], for which, in experiment [2] (1000 ppm), the “Results of Judgment 30 sec (Log decrease of number of bacteria vs control)” value is listed as greater than 5.24 Log and the “Results of Judgment 1 min (Log decrease of number of bacteria vs control)” value is given as greater than 5.24 Log. Further, the inhibition at 1000 ppm in experiment [1] (setting [3]) was found to be 100%. For the compound `CC=Cc1ccc(O)c(OC)c1` [Isoeugenol], in experiment [2] (500 ppm), the “Results of Judgment 30 sec (Log decrease of number of bacteria vs control)” value is given as greater than 3.93 Log and the “Results of Judgment 1 min (Log decrease of number of bacteria vs control)” value is given as greater than 3.93 Log. Besides, the inhibition at 500 ppm in experiment [1] (setting [4]) was 100%.

As for `C=CC(C)(CCC=C(C)C)OC(C)=O` (stereo not shown) [Linalyl acetate], the inhibition at 500 ppm in experiment [1] (setting [4]) was determined as 43%. In the case of `CC1CCC(C(C)C)C(O)C1` (stereo not shown) [Menthol], the inhibition at 3000 ppm in experiment [1] (3000 ppm, read-out: CH3SH Inhib. %) was 100%. As for `CC(C)[C@@H]1CC[C@@H](C)C[C@H]1OCC(O)CO` (stereo partly shown) [Menthoxypropanediol], the “CH3SH Inhib. %” value in experiment [1] (1000 ppm) worked out at 100%. Take `COC(=O)c1ccccc1O` [Methyl salicylate]: in experiment [1] (setting [3]), the inhibition at 1000 ppm worked out at 100%. On to `CC1=CCC(=C(C)C)CC1` [Terpinolene], for which, in experiment [2] (100 ppm), the “Results of Judgment 30 sec (Log decrease of number of bacteria vs control)” value is 1.16 Log and the “Results of Judgment 1 min (Log decrease of number of bacteria vs control)” value is reported as 1.63 Log. In addition, in experiment [1] (setting [5]), the inhibition at 100 ppm was found to be 36%. As to `Cc1ccc(C(C)C)c(O)c1` [Thymol], in experiment [1] (300 ppm, read-out: CH3SH Inhib. %), the inhibition at 300 ppm is 100%. Consider `C=C(C)[C@H]1CC=C(C)CC1` [d-Limonene], for which, in experiment [2] (500 ppm), the “Results of Judgment 30 sec (Log decrease of number of bacteria vs control)” value stood at 0.93 Log and the “Results of Judgment 1 min (Log decrease of number of bacteria vs control)” value was 1.50 Log. Further, the “CH3SH Inhib. %” value in experiment [1] (3000 ppm) amounted to 100%. In the case of `COc1ccccc1C=CC=O` [o-Methoxycinnamicaldehyde], in experiment [2] (1000 ppm), the “Results of Judgment 30 sec (Log decrease of number of bacteria vs control)” value worked out at 2.61 Log and the “Results of Judgment 1 min (Log decrease of number of bacteria vs control)” value is 3.85 Log. For the same compound, in experiment [1] (1000 ppm), the “CH3SH Inhib. %” value worked out at 100%.

Turning to `CCCCCC(C=O)=Cc1ccccc1` [α-Amylcinnamicaldehyde], the “CH3SH Inhib. %” value in experiment [1] (500 ppm) came to 99%. For `C=C1CCC2CC1C2(C)C` (stereo not drawn) [β-Pinene], in experiment [2] (500 ppm), the “Results of Judgment 30 sec (Log decrease of number of bacteria vs control)” value came out at 0.71 Log and the “Results of Judgment 1 min (Log decrease of number of bacteria vs control)” value is recorded as 1.12 Log. The inhibition at 500 ppm in experiment [1] (setting [4]) came out at 59%. With `CCCCCCC1CCC(=O)O1` (stereo not shown) [γ-Decalactone], the “CH3SH Inhib. %” value in experiment [1] (100 ppm) was 59%. Regarding `CC1=CCC(C(C)C)=CC1` [γ-Terpinene], in experiment [2] (500 ppm), the “Results of Judgment 30 sec (Log decrease of number of bacteria vs control)” value is listed as 0.94 Log and the “Results of Judgment 1 min (Log decrease of number of bacteria vs control)” value is recorded as 1.26 Log. In addition, in experiment [1] (setting [4]), the inhibition at 500 ppm was found to be 66%.

On to `CCCCCCCC1CCC(=O)O1` (stereo not shown) [γ-Undecalactone], for which, in experiment [1] (100 ppm), the “CH3SH Inhib. %” value is 70%. Turning to L-Carvone, the “CH3SH Inhib. %” value in experiment [1] (1000 ppm) amounted to 100%.
